# Experimental data: patent US10035797B2, “Fused amino pyridine as HSP90 inhibitors” (Curis, Inc., priority 2007, dated 2018)
# Target: HSP90 (Homo sapiens (Human), UniProt P07900)
# Assay: HSP90 competition binding (fluorescence polarization) assay
# Details: FITC labeled GM, 24 hours at 4° C.
# Source text: (b) HSP90 Competition Binding (Fluorescence Polarization) Assay.
# A fluorescein isothiocyanate (FITC) labeled GM was purchase from InvivoGen (ant-fgl-1). The interaction between HSP90 and labeled GM forms the basis for the fluorescence polarization assay. A free and fast-tumbling FITC labeled GM emits random light with respect to the plane of polarization plane of excited light, resulting in a lower polarization degree (mP) value. When GM is bound to HSP90, the complex tumble slower and the emitted light is polarized, resulting in a higher mP value. […] The assay buffer contained 20 mM HEPES (pH 7.3), 50 mM KCl, 1 mM DTT, 50 mM MgCl2, 20 mM Na2MoO4, 0.01% NP40 with 0.1 mg/ml bovine gamma-globulin.
structure (smiles),measurement,value
"CC(C)(C)CNCCCn1c(Sc2cc3c(cc2I)OCO3)nc2c(N)nccc21 [Compound 56, 2-(6-iodobenzo[d][1,3]dioxol-5-ylthio)-1-(3-(neopentylamino)propyl)-1H-imidazo[4,5-c]pyridin-4-amine]",IC50,100 to 1000 nM
